The values that follow come from the supplement of paper PMC11208160.
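Further: IS621 recombinase and bridge RNA in Escherichia coli cells.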

This data set in a line: recombinant barcode read abundance after kanamycin selection (control-corrected) (log10(CPM+1)); higher = more efficient recombination; sequences stand for … in AGTGCAGAGAAAATCGGCCAGTTTTCTCTGCCTGCAGTCCGCATGCCGT…AGATTTATGCAGCGGACTGCCTTTCTCCCAAAGTGATAAACCGGACAGTATCATGGACCGGTTTTCCCGGTAATCCGTATTTGCAAGGTTGGTTTCACT; site = the 11-nt target. The method, then:
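Pooled E. coli target-specificity screen for the IS621 bridge recombinase. Each library plasmid pairs an 11-nt target (CT core) with a bridge RNA whose target-binding loop (9-nt LTG + 4-nt RTG) is reprogrammed; the rest of the 177-nt WT IS621 bridge RNA scaffold is fixed. The plasmid is co-electroporated with a WT donor plasmid; recombinase is induced with 0.1 mM IPTG and recombinants are selected on kanamycin. Recombinant barcodes are sequenced, converted to CPM, averaged over two biological replicates and corrected by the unselected control CPM. Molecule = full bridge RNA written as DNA: LTG = specificity nt 1-9, RTG = reverse complement of specificity nt 8-11, in the WT scaffold.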
With “AAACCACCTTGGGTTCTAACCTGTTGCCT (site AAACCACCTAG)”, the “recombinant barcode read abundance (log10)” value was 1.49.
Turning to “AAACCACCTTGGGTTCTAACCTGTTGCCT (site ACACCACCTAG)”, the “recombinant barcode read abundance (log10)” value amounted to 0.257.
As to “AAACCACCTTGGGTTCTAACCTGTTGCCT (site AGACCACCTAG)”, the “recombinant barcode read abundance (log10)” value is 0.276.
As for “AAACCACCTTGGGTTCTAACCTGTTGCCT (site ATACCACCTAG)”, the “recombinant barcode read abundance (log10)” value was determined as 0.861.
Regarding “AAATCCTCTTGGGTTCTAACCTGTTGCCT (site AAATCCTCTAG)”, the “recombinant barcode read abundance (log10)” value is 1.04.
For “AAATCCTCTTGGGTTCTAACCTGTTGCCT (site CAATCCTCTAG)”, the “recombinant barcode read abundance (log10)” value worked out at 0.475.
As for “AAATCCTCTTGGGTTCTAACCTGTTGCCT (site GAATCCTCTAG)”, the “recombinant barcode read abundance (log10)” value turned out to be 0.085.
“AAATCCTCTTGGGTTCTAACCTGTTGCCT (site TAATCCTCTAG)”: the “recombinant barcode read abundance (log10)” value worked out at 0.409.
For “AAATGACCTTGGGTTCTAACCTGTTGCGT (site AAATGACCTAC)”, the “recombinant barcode read abundance (log10)” value was determined as 2.66.
“AAATGACCTTGGGTTCTAACCTGTTGCGT (site GTGCCCGCTCT)”: the “recombinant barcode read abundance (log10)” value was determined as 0.548.
Consider “AAATTGACTTGGGTTCTAACCTGTTGCCT (site AAATTGACTAG)”, for which the “recombinant barcode read abundance (log10)” value is 0.624.
As for “AAATTGACTTGGGTTCTAACCTGTTGCCT (site AACTTGACTAG)”, the “recombinant barcode read abundance (log10)” value is 0.136.
With “AAATTGACTTGGGTTCTAACCTGTTGCCT (site AAGTTGACTAG)” the figure was 0.0999; with “AAATTGACTTGGGTTCTAACCTGTTGCCT (site AATTTGACTAG)”, 0.0913.
As to “AAATTTCCTTGGGTTCTAACCTGTTGCCT (site AAATTTCCTAG)”, the “recombinant barcode read abundance (log10)” value is 0.42.
For the sequence “AAATTTCCTTGGGTTCTAACCTGTTGCCT (site ACATTTCCTAG)”, the “recombinant barcode read abundance (log10)” value came to 0.0879.
In the case of “AAATTTCCTTGGGTTCTAACCTGTTGCCT (site AGATTTCCTAG)” it was 0.0553.
As for “AAATTTCCTTGGGTTCTAACCTGTTGCCT (site ATATTTCCTAG)”, the “recombinant barcode read abundance (log10)” value was 0.123.
With “AACACGTCTTGGGTTCTAACCTGTTGCCT (site AAATCGTCTAG)”, the “recombinant barcode read abundance (log10)” value was found to be 0.0544.
Regarding “AACACGTCTTGGGTTCTAACCTGTTGCCT (site AACACGTCTAG)”, the “recombinant barcode read abundance (log10)” value was 0.576.
Turning to “AACACTCCTTGGGTTCTAACCTGTTGCTT (site AACACTCCTAA)”, the “recombinant barcode read abundance (log10)” value amounted to 0.0689.
“AACACTCCTTGGGTTCTAACCTGTTGCTT (site AAGACTCCTAA)”: the “recombinant barcode read abundance (log10)” value came out at 0.299.
Regarding “AACAGTTCTTGGGTTCTAACCTGTTGCCT (site AACAGCTCTAG)”, the “recombinant barcode read abundance (log10)” value was 0.151.
With “AACAGTTCTTGGGTTCTAACCTGTTGCCT (site AACAGTTCTAG)” the figure was 0.749.
Turning to “AACCGCCCTTGGGTTCTAACCTGTTGCGT (site AACCGCCCTAC)”, the “recombinant barcode read abundance (log10)” value amounted to 2.47.
Turning to “AACCGCCCTTGGGTTCTAACCTGTTGCGT (site AACCGCCCTAG)”, the “recombinant barcode read abundance (log10)” value was 0.434.
“AACCTAGCTTGGGTTCTAACCTGTTGCTA (site AACCTAGCTTA)”: the “recombinant barcode read abundance (log10)” value turned out to be 0.395.
“AACCTAGCTTGGGTTCTAACCTGTTGCTA (site ACCCTAGCTGA)”: the “recombinant barcode read abundance (log10)” value stood at 0.0657.
“AACGCTTCTTGGGTTCTAACCTGTTGCCT (site AACGCTTCTAG)”: the “recombinant barcode read abundance (log10)” value stood at 0.3.
With “AACGCTTCTTGGGTTCTAACCTGTTGCCT (site ACCGCTTCTAG)” the figure was 0.215; with “AACGCTTCTTGGGTTCTAACCTGTTGCCT (site AGCGCTTCTAG)”, 0.0496.
In the case of “AACGCTTCTTGGGTTCTAACCTGTTGCCT (site ATCGCTTCTAG)” it was 0.0246; in that of “AACGTACCTTGGGTTCTAACCTGTTGCCA (site AACGTACCTTG)”, 0.674; in that of “AACGTACCTTGGGTTCTAACCTGTTGCCA (site GGTAATACTAT)”, 0.0669.
For “AACTCTCCTTGGGTTCTAACCTGTTGCAT (site AACTATCCTAT)”, the “recombinant barcode read abundance (log10)” value is 0.11.
“AACTCTCCTTGGGTTCTAACCTGTTGCAT (site AACTCTCCTAT)”: the “recombinant barcode read abundance (log10)” value is 0.588.
Take “AACTCTCCTTGGGTTCTAACCTGTTGCAT (site AACTGTCCTAT)”: the “recombinant barcode read abundance (log10)” value is 0.188.
In the case of “AACTCTCCTTGGGTTCTAACCTGTTGCAT (site AACTTTCCTAT)”, the “recombinant barcode read abundance (log10)” value was determined as 0.0336.
On to “AACTGATCTTGGGTTCTAACCTGTTGCCT (site AACTAATCTAG)”, for which the “recombinant barcode read abundance (log10)” value was found to be 0.0976.
For the sequence “AACTGATCTTGGGTTCTAACCTGTTGCCT (site AACTCATCTAG)”, the “recombinant barcode read abundance (log10)” value came to 0.0693.
With “AACTGATCTTGGGTTCTAACCTGTTGCCT (site AACTGATCTAG)” the figure was 0.397; with “AACTGATCTTGGGTTCTAACCTGTTGCCT (site AACTTATCTAG)”, 0.038.
As to “AACTGGGCTTGGGTTCTAACCTGTTGCCT (site AACTGGGCTAG)”, the “recombinant barcode read abundance (log10)” value stood at 0.252.
Turning to “AACTGGGCTTGGGTTCTAACCTGTTGCCT (site ACCTGGGCTAG)”, the “recombinant barcode read abundance (log10)” value amounted to 0.149.
In the case of “AACTGGGCTTGGGTTCTAACCTGTTGCCT (site AGCTGGGCTAG)” it was 0.0923; in that of “AACTGGGCTTGGGTTCTAACCTGTTGCCT (site ATCTGGGCTAG)”, 0.141; in that of “AACTGTCCTTGGGTTCTAACCTGTTGCAT (site AACTATCCTAT)”, 0.106.
Turning to “AACTGTCCTTGGGTTCTAACCTGTTGCAT (site AACTCTCCTAT)”, the “recombinant barcode read abundance (log10)” value stood at 0.0428.
In the case of “AACTGTCCTTGGGTTCTAACCTGTTGCAT (site AACTGTCCTAT)” it was 0.805; in that of “AACTGTCCTTGGGTTCTAACCTGTTGCAT (site AACTTTCCTAT)”, 0.106; in that of “AACTTAACTTGGGTTCTAACCTGTTGCCT (site AACTAAACTAG)”, 0.236.
As to “AACTTAACTTGGGTTCTAACCTGTTGCCT (site AACTCAACTAG)”, the “recombinant barcode read abundance (log10)” value worked out at 0.0571.
With “AACTTAACTTGGGTTCTAACCTGTTGCCT (site AACTGAACTAG)” the figure was 0.09; with “AACTTAACTTGGGTTCTAACCTGTTGCCT (site AACTTAACTAG)”, 0.531.
As for “AACTTCGCTTGGGTTCTAACCTGTTGCCT (site AACTTCACTAG)”, the “recombinant barcode read abundance (log10)” value amounted to 0.114.
In the case of “AACTTCGCTTGGGTTCTAACCTGTTGCCT (site AACTTCCCTAG)”, the “recombinant barcode read abundance (log10)” value came out at 0.00931.
As to “AACTTCGCTTGGGTTCTAACCTGTTGCCT (site AACTTCGCTAG)”, the “recombinant barcode read abundance (log10)” value was 0.423.
As to “AACTTCGCTTGGGTTCTAACCTGTTGCCT (site AACTTCTCTAG)”, the “recombinant barcode read abundance (log10)” value was determined as 0.269.
Consider “AACTTGACTTGGGTTCTAACCTGTTGCCT (site AAATTGACTAG)”, for which the “recombinant barcode read abundance (log10)” value was found to be 0.248.
